Measurements: patent US4515941A, “23-Demycinosyldesmycosin derivatives” (Toyo Jozo Kabushiki Kaisha, priority 1982, dated 1985)
Values after ≈ are worked out from the molar mass of the structure shown. Read-outs that look alike come from different tables or passages of the source.

Legend:
Type in all cases: cell-based
[1] = tested on: Staphylococcus aureus ATCC 6538P; test: MIC, Staphylococcus aureus ATCC 6538P; settings: ATCC6538P
[2] = tested on: Proteus vulgaris OX19; test: MIC, Proteus vulgaris OX19
[3] = tested on: Shigella sonnei E33; test: MIC, Shigella sonnei E33
[4] = tested on: Pseudomonas aeruginosa IAM 1095; test: MIC, Pseudomonas aeruginosa IAM 1095; settings: IAM1095
[5] = tested on: Sarcina lutea ATCC 9341; test: MIC, Sarcina lutea ATCC 9341; settings: Micrococcus luteus, ATCC9341
[6] = tested on: Klebsiella pneumoniae ATCC 10031; test: MIC, Klebsiella pneumoniae ATCC 10031
[7] = tested on: Salmonella typhosa H901; test: MIC, Salmonella typhosa H901
[8] = tested on: Staphylococcus aureus MS353 A0; test: MIC, Staphylococcus aureus MS353 A0 (macrolide resistant); settings: MS353A0, macrolide resistant bacteria A group
Excerpt: (§1) *macrolide resistant bacteria A group (clinical isolates of erythromycin,
(§2) oleandomycin and 16membered macrolide antibiotic resistant strains.)

[9] = tested on: Streptococcus faecalis 1501; test: MIC, Streptococcus faecalis 1501
[10] = tested on: Staphylococcus aureus MS353; test: MIC, Staphylococcus aureus MS353
[11] = tested on: Streptococcus pyogenes N.Y.5; test: MIC, Streptococcus pyogenes N.Y.5
[12] = tested on: Streptococcus agalactiae 1020; test: MIC, Streptococcus agalactiae 1020
[13] = tested on: Corynebacterium diptheriae P.Y.8; test: MIC, Corynebacterium diptheriae P.Y.8
[14] = tested on: Bacillus subtilis ATC 6633; test: MIC, Bacillus subtilis ATC 6633
[15] = tested on: Escherichia coli NIHJ-JC2; test: MIC, Escherichia coli NIHJ-JC2; settings: NIHJJC2
[16] = tested on: Staphylococcus epidermis sp-al-1; test: MIC, Staphylococcus epidermis sp-al-1
[17] = tested on: Staphylococcus aureus 0127; test: MIC, Staphylococcus aureus 0127 (macrolide resistant); settings: Staphylococcus aureus 0127; macrolide resistant bacteria A group; read-out: MIC
Excerpt: as §1, §2

[18] = tested on: Streptococcus pyogenes 1022; test: MIC, Streptococcus pyogenes 1022 (macrolide resistant); settings: Streptococcus pyogenes 1022; macrolide resistant bacteria A group; read-out: MIC
Excerpt: as §1, §2

[19] = tested on: Staphylococcus aureus MS353 C36; test: MIC, Staphylococcus aureus MS353 C36; settings: MS353C36
[20] = tested on: Shigella flexineri type 3a; test: MIC, Shigella flexineri type 3a; settings: TYPE3A
[21] = tested on: Salmonella enteritidis Gaertner; test: MIC, Salmonella enteritidis Gaertner; settings: Salmonella enterica, ENTERITIDIS
[22] = tested on: Micrococcus flavus ATCC 10240; test: MIC, Micrococcus flavus ATCC 10240; settings: Micrococcus flavus, ATCC10240
[23] = tested on: Serratia marcescens; test: MIC, Serratia marcescens
[24] = tested on: Escherichia coli B; test: MIC, Escherichia coli B
[25] = Proteus vulgaris OX19, read-out: MIC
[26] = Pseudomonas aeruginosa IAM 1095, read-out: MIC
[27] = ATCC10031, Klebsiella pneumoniae ATCC 10031, read-out: MIC
[28] = Enterococcus faecalis, Streptococcus faecalis 1501, read-out: MIC
[29] = Staphylococcus aureus MS353, read-out: MIC
[30] = Streptococcus agalactiae 1020, read-out: MIC
[31] = Corynebacterium diptheriae P.Y.8, read-out: MIC
[32] = ATC6633, Bacillus subtilis ATC 6633, read-out: MIC
[33] = SPAL1, Staphylococcus epidermis sp-al-1, read-out: MIC
[34] = Proteus vulgaris, OX19, Proteus vulgaris OX19
[35] = Klebsiella pneumoniae, ATCC10031, Klebsiella pneumoniae ATCC 10031
[36] = Enterococcus faecalis, 1501, Streptococcus faecalis 1501
[37] = Bacillus subtilis, ATC6633, Bacillus subtilis ATC 6633

SMILES	MIC ([1]; read-out: MIC) [µg/mL]	MIC [2, 25] [µg/mL]	MIC [3] [µg/mL]	MIC [4, 26] [µg/mL]	MIC [5] [µg/mL]	MIC [6, 27] [µg/mL]	MIC ([7]; Salmonella enterica, TYPHOSA) [µg/mL]	MIC [8] [µg/mL]	MIC [9, 28] [µg/mL]	MIC [10, 29] [µg/mL]	MIC ([11]; read-out: MIC) [µg/mL]	MIC [12, 30] [µg/mL]	MIC [13, 31] [µg/mL]	MIC [14, 32] [µg/mL]	MIC [15] [µg/mL]	MIC [16, 33] [µg/mL]	MIC [17] [µg/mL]	MIC [18] [µg/mL]	MIC [19] [µg/mL]	MIC [2, 34] [µg/mL]	also measured
CCC1OC(=O)CC(O)C(C)C(OC2OC(C)C(O)C(N(C)C)C2O)C(CC=O)CC(C)C(=O)C=CC(C)=CC1CSCc1ccccc1 (centres unmarked) [SCH2 C6 H5, 23-benzylthio-23-demycinosyl-23-deoxydesmycosin]	≤ 0.05	6.3 (≈ 8.95 µM)	25 (≈ 35.5 µM)	100 (≈ 142 µM)	≤ 0.05	1.6 (≈ 2.27 µM)	50 (≈ 71 µM)	50 (≈ 71 µM)	≤ 0.05	≤ 0.05	≤ 0.05	≤ 0.05	≤ 0.05	0.1 (≈ 0.142 µM)	50 (≈ 71 µM)	≤ 0.05	–	–	–	–	–
CCC1OC(=O)CC(O)C(C)C(OC2OC(C)C(O)C(N(C)C)C2O)C(CC=O)CC(C)C(=O)C=CC(C)=CC1COCc1ccccc1 (centres unmarked) [OCH 2 C6 H5, 23-O-benzyl-23-demycinosyldesmycosin]	≤ 0.05	3.1 (≈ 4.51 µM)	25 (≈ 36.3 µM)	50 (≈ 72.7 µM)	≤ 0.05	6.3 (≈ 9.16 µM)	100 (≈ 145 µM)	50 (≈ 72.7 µM)	0.05 (≈ 0.0727 µM)	≤ 0.05	≤ 0.05	≤ 0.05	≤ 0.05	≤ 0.05	25 (≈ 36.3 µM)	≤ 0.05	100 (≈ 145 µM)	3.1 (≈ 4.51 µM)	–	–	–
CC[C@H]1OC(=O)C[C@@H](O)[C@H](C)[C@@H](O[C@@H]2O[C@H](C)[C@@H](O[C@H]3C[C@@](C)(O)[C@@H](O)[C@H](C)O3)[C@H](N(C)C)[C@H]2O)[C@@H](CC=O)C[C@@H](C)C(=O)/C=C/C(C)=C/[C@@H]1CO[C@@H]1O[C@H](C)[C@@H](O)[C@@H](OC)[C@H]1OC [TS, tylosin, reference compound]	–	–	> 100	–	≤ 0.05	–	> 100	–	–	–	–	–	–	–	–	–	–	–	0.4 (≈ 0.437 µM)	> 100	MIC ([1]; Staphylococcus aureus): 0.8 µg/mL (≈ 0.873 µM); MIC [20]: 50 µg/mL (≈ 54.6 µM); MIC [21]: > 100 µg/mL; MIC ([4]; Pseudomonas aeruginosa): > 100 µg/mL; MIC ([6]; Klebsiella pneumoniae ATCC 10031): 100 µg/mL (≈ 109 µM); MIC [6, 35]: 50 µg/mL (≈ 54.6 µM); MIC [9, 36]: 0.8 µg/mL (≈ 0.873 µM); MIC ([9]; Streptococcus faecalis 1501): 1.6 µg/mL (≈ 1.75 µM); MIC ([10]; Staphylococcus aureus, MS353, Staphylococcus aureus MS353): 0.8 µg/mL (≈ 0.873 µM); MIC [11]: 0.1 µg/mL (≈ 0.109 µM); MIC ([12]; Streptococcus agalactiae 1020): 0.4 µg/mL (≈ 0.437 µM); MIC ([12]; Streptococcus agalactiae, 1020, Streptococcus agalactiae 1020): 0.2 µg/mL (≈ 0.218 µM); MIC ([13]; Corynebacterium, P.Y.8): ≤ 0.05 µg/mL; MIC [14, 37]: 0.2 µg/mL (≈ 0.218 µM); MIC [22]: ≤ 0.05 µg/mL; MIC [23]: > 100 µg/mL; MIC ([16]; Staphylococcus, SPAL1, Staphylococcus epidermis sp-al-1): 0.4 µg/mL (≈ 0.437 µM)
CC[C@H]1OC(=O)[C@H](C)[C@@H](O[C@H]2C[C@@](C)(OC)[C@@H](O)[C@H](C)O2)[C@H](C)[C@@H](O[C@@H]2O[C@H](C)C[C@H](N(C)C)[C@H]2O)[C@](C)(O)C[C@@H](C)C(=O)[C@H](C)[C@@H](O)[C@]1(C)O [EM, erythromycin, reference compound]	–	–	100 (≈ 136 µM)	–	≤ 0.05	–	100 (≈ 136 µM)	–	–	–	–	–	–	–	100 (≈ 136 µM)	–	–	–	0.4 (≈ 0.545 µM)	50 (≈ 68.1 µM)	MIC ([2]; Proteus vulgaris OX19): 25 µg/mL (≈ 34.1 µM); MIC [20]: 12.5 µg/mL (≈ 17 µM); MIC [21]: 100 µg/mL (≈ 136 µM); MIC ([4]; Pseudomonas aeruginosa): 100 µg/mL (≈ 136 µM); MIC [6, 35]: 6.3 µg/mL (≈ 8.58 µM); MIC [7]: 50 µg/mL (≈ 68.1 µM); MIC [9, 36]: 0.2 µg/mL (≈ 0.273 µM); MIC [24]: > 100 µg/mL; MIC ([13]; Corynebacterium, P.Y.8): ≤ 0.05 µg/mL; MIC [14, 37]: 0.1 µg/mL (≈ 0.136 µM); MIC [22]: 0.1 µg/mL (≈ 0.136 µM); MIC [23]: 100 µg/mL (≈ 136 µM)
CCC1OC(=O)CC(O)C(C)C(OC2OC(C)C(O)C(N(C)C)C2O)C(CC=O)CC(C)C(=O)C=CC(C)=CC1COC(c1ccccc1)(c1ccccc1)c1ccccc1 (centres unmarked) [OC(C6 H5)3, 23-O-triphenylmethyl-23-demycinosyldesmycosin]	1.6 (≈ 1.9 µM)	> 100	> 100	> 100	0.4 (≈ 0.476 µM)	> 100	> 100	6.3 (≈ 7.5 µM)	1.6 (≈ 1.9 µM)	1.6 (≈ 1.9 µM)	0.8 (≈ 0.952 µM)	1.6 (≈ 1.9 µM)	0.1 (≈ 0.119 µM)	3.1 (≈ 3.69 µM)	> 100	1.6 (≈ 1.9 µM)	25 (≈ 29.8 µM)	3.1 (≈ 3.69 µM)	–	–	–
